Test results as given in patent US20250109134A1 (Ascentage Pharma (Suzhou) Co., Ltd., priority 2022, published 2025).

Tests used:
Type in all cases: physicochemical
[1] = Stability study, solid form by XRPD after open storage at high temperature / high humidity; conditions: summary of forms
Procedure: In the present invention, the XRPD test parameters are set as follows:
Then, the sample flasks were opened to air (sealed with aluminum foil punctured with small holes) and placed in constant temperature and humidity cabinets at high temperature (60° C.), at room temperature and high humidity (RT/92.5% RH), at RT/75% RH, and at 40° C./75% RH for 30 days, respectively, and samples were taken at days 5, 10 and 30 for XRPD and HPLC detection.

[2] = Stability study, content and related substances (TRS, total impurity content) by HPLC
Procedure: In the present invention, the HPLC (high performance liquid chromatography) test parameters are set as follows:
Then, the sample flasks were opened to air (sealed with aluminum foil punctured with small holes) and placed in constant temperature and humidity cabinets at high temperature (60° C.), at room temperature and high humidity ([…]), at RT/75% RH, and at 40° C./75% RH for 30 days, respectively, […]

[3] = XRPD characterization (crystallinity), summary evaluation; conditions: summary of forms
Text: In the present invention, the XRPD test parameters are set as follows: […]

[4] = Dynamic vapor sorption (DVS) hygroscopicity test; conditions: summary of forms
Text: In the present invention, the DVS test parameters are set as follows: […]

Compound	Evaluation results: stability [1]	TRS(%) ([2]; 40° C./75RH %-5 d, open storage)	TRS(%) ([2]; 40° C./75RH %- 10 d, open storage)	TRS(%) ([2]; 40° C./75RH %- 30 d, open storage)	TRS(%) ([2]; 60° C.-5 d, open storage)	TRS(%) ([2]; 60° C.-10 d, open storage)	TRS(%) ([2]; 60° C.-30 d, open storage)	TRS(%) ([2]; Initial, TRS = total impurity content, HPLC)	TRS(%) ([2]; RT/90RH %-5 d, open storage)	TRS(%) ([2]; RT/90RH %-10 d, open storage)	TRS(%) ([2]; RT/90RH %-30 d, open storage)	Evaluation results: crystallinity [3]	Evaluation results: hygroscopicity [4]
CC(C)N1Cc2cc(C(F)(F)F)ncc2-c2cnc(NCc3c(F)ccc4c3CCO4)n3cnc(c23)C1=O [Crystalline form B]	Good stability	0.54%	0.46%	0.56%	0.52%	0.53%	0.62%	0.89%	0.55%	0.56%	0.58%	high crystallinity	
CC(C)N1Cc2cc(C(F)(F)F)ncc2-c2cnc(NCc3c(F)ccc4c3CCO4)n3cnc(c23)C1=O [Crystalline form G]												High crystallinity	slight hygroscopicity
